Experiment [1] concerns the target T1, M4 muscarinic receptor (Homo sapiens, UniProt P08173).
T1 construct: expressed in transfected cells; host or cells: CHO (M4-CHO recombinant cell line)
T1 sequence (P08173 1-479): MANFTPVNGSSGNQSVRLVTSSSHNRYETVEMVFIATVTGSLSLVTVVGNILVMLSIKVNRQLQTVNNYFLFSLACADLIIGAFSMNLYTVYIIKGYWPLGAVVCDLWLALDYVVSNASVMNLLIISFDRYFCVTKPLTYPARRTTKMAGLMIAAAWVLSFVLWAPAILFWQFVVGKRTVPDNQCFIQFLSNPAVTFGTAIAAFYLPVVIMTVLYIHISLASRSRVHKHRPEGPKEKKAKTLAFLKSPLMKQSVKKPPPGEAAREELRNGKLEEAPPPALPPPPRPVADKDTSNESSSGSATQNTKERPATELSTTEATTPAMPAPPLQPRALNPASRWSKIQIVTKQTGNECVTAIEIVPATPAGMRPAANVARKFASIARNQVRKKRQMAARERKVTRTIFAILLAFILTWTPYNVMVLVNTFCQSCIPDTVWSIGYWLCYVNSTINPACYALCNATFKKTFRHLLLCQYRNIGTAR
Briefly: Functional mobilization of intracellular calcium (FLIPR) in CHO cells expressing M4 muscarinic receptor. The following applies: for M4 Activity: CHO cells expressing M4, calcium mobilization; for Emax: CHO, 100% efficacy is the maximum response obtained with the Carbachol control. It counts as cell-based. As to the method: (§1) VI. Assays for Detecting and Measuring Inhibition Properties of Compounds Functional Mobilization of Intracellular Calcium to Determine Muscarinic Receptor Activity:
(§2) CHO cells expressing muscarinic receptors (M1 to M5) are grown as monolayers in tissue culture flasks at 37° C. in a humidified atmosphere containing 5% CO2 and passaged every 3-5 days. The growth media is Dulbecco's modified eagles medium (DMEM, Gibco Cat# 12430-054), containing 25 mM Hepes and supplemented with Fetal Bovine Serum (Hyclone, cat# SH30071.03), 0.1 mM of MEM non-essential amino acids (GIBCO, Cat# 11140-050), 1 mM MEM Sodium Pyruvate (GIBCO Cat# 11360-070) and 100 units/ml of Penicillin G and 100 μg/ml of Streptomycin (GIBCO Cat# 15140-122). The recombinant muscarinic receptor cell lines are grown under antibiotic pressure with media containing 25 μg/ml zeocin and 500 μg/ml G418 (M1-CHO), 4 μg/ml puromycin, 50 μg/ml zeocin and 2.5 μg/ml blasticidin (M2 and M4-CHO) or 50 μg/ml zeocin and 4 μg/ml puromycin (M3 and M5-CHO).
(§3) Cells are harvested at 80-90% confluence using Versene (GIBCO Cat# 15040-066), collected by centrifugation and seeded 18-24 hours prior to running the calcium assay at a density of 5,000-10,000 cells/well in […], clear-bottomed 384-well plates (BD Biocoat, poly-D-lysine, Cat#356663). The day of the experiment, the cells are washed with a plate washer (Bioteck Instruments, ELX 405) using bath buffer (140-mM NaCl, 4.5-mM KCl, 2-mM CaCl2, 1-mM MgCl2, 10-mM Hepes-Na, 10-mM Glucose, pH 7.4, with NaOH) containing 1 mM Probenecid. Next, the calcium dye Fluo-3 (25 μl/well of Fluo-3 μM at 4 μM, Molecular Probes F-1241, in Bath 1 buffer containing 1 mM Probenecid) is added to the 25 μl of Bath 1 remaining in each well after the plate wash and the dye is loaded at 37° C. in the tissue culture incubator for 60-90 min. The fluorescent dye is removed using the plate washer with Bath 1 containing 1 mM Probenecid, leaving 25 μl/well of this solution after the wash. Alternatively, cells can be loaded with the calcium indicator from Molecular Devices (Calcium 3 Assay Reagents, Cat # R7181) adding 5 μl of a 5× solution dye in Bath 1 containing 1 mM Probenecid (10 ml per dye flask cat# R7182 to generate a solution 20×) to 20 μl of the same buffer. After loading for 60 min, the experiment can be run without having to remove the dye.
(§4) Compounds are prepared at a 2× fold concentration in a 96-well plate (round bottom, Costar Corning cat# 3656), by reconstituting the pre-spotted compounds in bath 1 containing 1 mM probenecid. The final concentration DMSO is 0.5%, and the amount of DMSO is normalized across the assay plate. To determine an agonist action of the compounds on muscarinic receptors, the reconstituted compounds are added (25 μl compound/well) to the cell assay plate (containing 25 μl/well) using the multi-channel robotic system of the FLIPR 3 Instrument (Molecular Devices, Sunnyvale, Calif.). To determine a functional inhibitory-action of the compounds on muscarinic receptors, the reconstituted compounds are added (25 μl compound/well) to the assay plate and pre-incubated for 15 min prior to adding 25 μl of Carbachol at 3× the EC80 for each muscarinic subtype. Alternatively, the compounds can be co-applied simultaneously with the agonist. In both assay modes, the fluorescence is recorded for 60 sec (excitation wavelength is […] and emission wavelength 540 nm) using the FLIPR 3 instrument.
(§5) The potency, efficacy and selectivity of the muscarinic compounds were evaluated by screening the compound activity across the whole family (M1 to M5 cells). Compounds were also screened for activity on other proteins such as other GPCRs and ion channels to determine selectivity on M4 receptors.
(§6) Examples of activities and efficacies of the muscarinic compounds of formulae (I, Ia, and Ib) on modulating M1 and M4 receptors are shown below in Table 8. […]
(In general: A change in cytosolic calcium serves as a functional read-out for many receptors and channels.)

For experiment [2], the target named is T2, M1 muscarinic receptor (Homo sapiens, UniProt P11229).
T2 construct: expressed in transfected cells; host or cells: CHO (M1-CHO recombinant cell line)
T2 sequence (P11229 1-460): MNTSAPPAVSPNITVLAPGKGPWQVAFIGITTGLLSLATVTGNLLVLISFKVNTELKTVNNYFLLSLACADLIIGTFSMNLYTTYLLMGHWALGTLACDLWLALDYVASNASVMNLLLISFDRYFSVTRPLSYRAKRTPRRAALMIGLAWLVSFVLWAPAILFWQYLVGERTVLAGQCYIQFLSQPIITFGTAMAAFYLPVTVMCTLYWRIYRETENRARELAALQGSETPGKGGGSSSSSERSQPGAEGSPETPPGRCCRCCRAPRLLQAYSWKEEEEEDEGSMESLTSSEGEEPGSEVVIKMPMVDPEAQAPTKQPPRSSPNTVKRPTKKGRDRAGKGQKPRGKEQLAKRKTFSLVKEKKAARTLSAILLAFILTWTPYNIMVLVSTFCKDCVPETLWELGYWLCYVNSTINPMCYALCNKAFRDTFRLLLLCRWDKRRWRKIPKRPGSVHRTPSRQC
The experiment can be described thus: Functional mobilization of intracellular calcium (FLIPR) in CHO cells expressing M1 muscarinic receptor. It counts as cell-based. The settings on record: for M1 Activity: CHO cells expressing M1, calcium mobilization; for Emax: CHO, 100% efficacy is the maximum response obtained with the Carbachol control. As to the method:
as §1, §2, §3, §4, §5, §6

One may read the Emax as the size of the effect at its maximum, as opposed to the concentration needed. On to `CC(C)(C)CCN1CCC2(CC=C(C(=O)N3CCCC3)c3ccccc32)CC1` [compound 11], for which, in experiment [1], the “M4 Activity” value was “++ (activity was measured to be from 2.0 μM to 10.0 μM)” and the Emax is under 25%. Moreover, in experiment [2], the “M1 Activity” value is “++ (activity was measured to be from 2.0 μM to 10.0 μM)” and the Emax fell in the range of 25 to 100%.
`CCOC(=O)N1C2CCC1CC(N1CCC3(C=C(C(=O)O)c4ccccc43)CC1)C2` (centres unmarked) [compound 13]: in experiment [1], the “M4 Activity” value is recorded as “+++ (activity was measured to be less than 2.0 μM)” and the maximal response (Emax) lay in the range of 25 to 100%. Besides, in experiment [2], the “M1 Activity” value is recorded as “+++ (activity was measured to be less than 2.0 μM)” and the Emax fell in the range of 25 to 100%.
Turning to `CNC(=O)C1=CC2(CCN(CCC(C)C)CC2)c2ccccc21` [compound 15], in experiment [1], the “M4 Activity” value is given as “+++ (activity was measured to be less than 2.0 μM)” and the Emax was in the range of 25 to 100%. In experiment [2], the “M1 Activity” value is given as “+ (activity was measured to be greater than 10.0 μM)” and the Emax lay in the range of 25 to 100%.
For `CCC(CC)NC(=O)C1=CC2(CCN(C3CCCC3)CC2)c2ccccc21` [compound 17], in experiment [1], the “M4 Activity” value is given as “+ (activity was measured to be greater than 10.0 μM)” and the Emax lay in the range of 25 to 100%. Besides, in experiment [2], the “M1 Activity” value is “+ (activity was measured to be greater than 10.0 μM)” and the Emax was under 25%.
On to `CCC(CC)NC(=O)C1=CC2(CCN(C3CCN(C(=O)N4CCOCC4)CC3)CC2)c2ccccc21` [compound 18], for which, in experiment [1], the “M4 Activity” value is listed as “+ (activity was measured to be greater than 10.0 μM)” and the Emax was under 25%. Moreover, in experiment [2], the “M1 Activity” value is “+ (activity was measured to be greater than 10.0 μM)” and the Emax was under 25%.
Take `CNC(=O)C1=CC2(CCN(CCC(C)CCCC(C)(C)OC)CC2)c2ccccc21` (centres unmarked) [compound 19]: in experiment [1], the “M4 Activity” value is listed as “+ (activity was measured to be greater than 10.0 μM)” and the Emax was under 25%. Moreover, in experiment [2], the “M1 Activity” value is “+ (activity was measured to be greater than 10.0 μM)” and the Emax lay within 25 to 100%.
For `CCC(CC)NC(=O)C1=CC2(CCN(C3CCN(C(=O)C(C)C)CC3)CC2)c2ccccc21` [compound 22], in experiment [1], the “M4 Activity” value is “+ (activity was measured to be greater than 10.0 μM)” and the Emax is under 25%. In experiment [2], the “M1 Activity” value is reported as “+ (activity was measured to be greater than 10.0 μM)” and the Emax is under 25%.
Consider `C=CCOC(=O)N1CCC(N2CCC3(C=C(C(=O)NC(CC)CC)c4ccccc43)CC2)CC1` [compound 24], for which, in experiment [1], the “M4 Activity” value is given as “++ (activity was measured to be from 2.0 μM to 10.0 μM)” and the Emax is 25 to 100%. In experiment [2], the “M1 Activity” value is listed as “+ (activity was measured to be greater than 10.0 μM)” and the Emax lay in the range of 25 to 100%.
Take `CC(C)(C)CCN1CCC2(C=C(C(=O)NC3CCCCC3)c3ccccc32)CC1` [compound 25]: in experiment [1], the “M4 Activity” value is on record as “+ (activity was measured to be greater than 10.0 μM)” and the Emax was under 25%. For the same molecule, in experiment [2], the “M1 Activity” value is given as “++ (activity was measured to be from 2.0 μM to 10.0 μM)” and the Emax is 25 to 100%.
The matching figures for `CCN(CC)C(=O)C1=CC2(CCN(CCC(C)(C)C)CC2)c2ccccc21` [compound 26]: “+ (activity was measured to be greater than 10.0 μM)”, under 25%, “+ (activity was measured to be greater than 10.0 μM)” and under 25%.
Regarding `CCOC(=O)N1CCC(N2CCC3(C=C(C(=O)NC(CC)CC)c4ccccc43)CC2)CC1` [compound 28], in experiment [1], the “M4 Activity” value was “+++ (activity was measured to be less than 2.0 μM)” and the Emax lay in the range of 25 to 100%. Moreover, in experiment [2], the “M1 Activity” value is recorded as “++ (activity was measured to be from 2.0 μM to 10.0 μM)” and the Emax is 25 to 100%.
For the molecule `O=C(C1=CCC2(CCN(C3C[C@@H]4CC[C@@H]3C4)CC2)c2ccccc21)N1CCCC1` (some centres unmarked) [compound 29], in experiment [1], the “M4 Activity” value was “+ (activity was measured to be greater than 10.0 μM)” and the Emax is under 25%. In experiment [2], the “M1 Activity” value is listed as “+ (activity was measured to be greater than 10.0 μM)” and the Emax is under 25%.
In the case of `CCC(CC)NC(=O)C1=CC2(CCN(CC3CC4C=CC3C4)CC2)c2ccccc21` (centres unmarked) [compound 30], in experiment [1], the “M4 Activity” value is on record as “+++ (activity was measured to be less than 2.0 μM)” and the Emax was in the range of 25 to 100%. In experiment [2], the “M1 Activity” value is “+ (activity was measured to be greater than 10.0 μM)” and the maximum response (Emax) was under 25%.
In the same order, the values of `O=C(NC1CC1)C1=CC2(CCN(CC3CC4C=CC3C4)CC2)c2ccccc21` (centres unmarked) [compound 32] are “+++ (activity was measured to be less than 2.0 μM)”, 25 to 100%, “+ (activity was measured to be greater than 10.0 μM)” and 25 to 100%.
In the same order, the values of `CCC(CC)NC(=O)C1=CC2(CCN(C3CCN(C(=O)N(C)C)CC3)CC2)c2ccccc21` [compound 33] are “+ (activity was measured to be greater than 10.0 μM)”, under 25%, “+ (activity was measured to be greater than 10.0 μM)” and under 25%.
On to `O=C(C1=CCC2(CCN(CC3CC4C=CC3C4)CC2)c2ccccc21)N1CCCC1` (centres unmarked) [compound 34], for which, in experiment [1], the “M4 Activity” value is recorded as “+ (activity was measured to be greater than 10.0 μM)” and the Emax is under 25%. Moreover, in experiment [2], the “M1 Activity” value is “+++ (activity was measured to be less than 2.0 μM)” and the Emax was in the range of 25 to 100%.
Consider `N#CC1=CCC2(CCN(C3C[C@@H]4CC[C@@H]3C4)CC2)c2ccccc21` (some centres unmarked) [compound 35], for which, in experiment [1], the “M4 Activity” value is “++ (activity was measured to be from 2.0 μM to 10.0 μM)” and the Emax is under 25%. Moreover, in experiment [2], the “M1 Activity” value was “+ (activity was measured to be greater than 10.0 μM)” and the Emax was under 25%.
